Test results reported in the NIST ThermoML archive (doi:10.1021/je060283w).

Assay: relative permittivity at zero frequency (dimensionless)
Conditions: Parallel plate capacitor

COC [dimethyl ether]
Conditions	relative permittivity at zero frequency
303.7 K, 180 kPa, Gas	1.016
303.7 K, 320 kPa, Gas	1.025
303.7 K, 440 kPa, Gas	1.032
303.7 K, 460 kPa, Gas	1.034
303.7 K, 500 kPa, Gas	1.037
303.7 K, 530 kPa, Gas	1.039
303.7 K, 660 kPa, Gas	1.084
303.7 K, 6300 kPa, Liquid	5.34
303.7 K, 8000 kPa, Liquid	5.37
303.7 K, 10200 kPa, Liquid	5.41
303.7 K, 12200 kPa, Liquid	5.44
303.7 K, 14200 kPa, Liquid	5.47
303.7 K, 16300 kPa, Liquid	5.5
303.7 K, 17600 kPa, Liquid	5.52
303.7 K, 20200 kPa, Liquid	5.56
303.7 K, 22400 kPa, Liquid	5.59
303.7 K, 24200 kPa, Liquid	5.62
303.7 K, 25900 kPa, Liquid	5.64
303.7 K, 27500 kPa, Liquid	5.66
313.3 K, 80 kPa, Gas	1.011
313.3 K, 150 kPa, Gas	1.015
313.3 K, 460 kPa, Gas	1.034
313.3 K, 510 kPa, Gas	1.037
313.3 K, 560 kPa, Gas	1.041
313.3 K, 770 kPa, Gas	1.057
313.3 K, 870 kPa, Gas	1.142
313.3 K, 2300 kPa, Liquid	5
313.3 K, 4400 kPa, Liquid	5.05
313.3 K, 6300 kPa, Liquid	5.1
313.3 K, 8300 kPa, Liquid	5.14
313.3 K, 10200 kPa, Liquid	5.16
313.3 K, 12200 kPa, Liquid	5.2
313.3 K, 14300 kPa, Liquid	5.24
313.3 K, 16300 kPa, Liquid	5.27
313.3 K, 18000 kPa, Liquid	5.3
313.3 K, 20400 kPa, Liquid	5.33
313.3 K, 22000 kPa, Liquid	5.35
313.3 K, 24300 kPa, Liquid	5.39
313.3 K, 26100 kPa, Liquid	5.41
313.3 K, 28200 kPa, Liquid	5.44
313.3 K, 29600 kPa, Liquid	5.46
323 K, 50 kPa, Gas	1.01
323 K, 100 kPa, Gas	1.012
323 K, 240 kPa, Gas	1.02
323 K, 450 kPa, Gas	1.033
323 K, 530 kPa, Gas	1.038
323 K, 700 kPa, Gas	1.049
323 K, 1080 kPa, Gas	1.118
323 K, 1300 kPa, Liquid	4.72
323 K, 2200 kPa, Liquid	4.74
323 K, 4200 kPa, Liquid	4.8
323 K, 6200 kPa, Liquid	4.85
323 K, 8200 kPa, Liquid	4.89
323 K, 10400 kPa, Liquid	4.93
323 K, 12400 kPa, Liquid	4.97
323 K, 14200 kPa, Liquid	5.01
323 K, 16400 kPa, Liquid	5.04
323 K, 18300 kPa, Liquid	5.07
323 K, 19800 kPa, Liquid	5.1
323 K, 22000 kPa, Liquid	5.13
323 K, 24000 kPa, Liquid	5.17
323 K, 26300 kPa, Liquid	5.2
323 K, 27900 kPa, Liquid	5.23
323 K, 29400 kPa, Liquid	5.25
323 K, 31200 kPa, Liquid	5.27
333.4 K, 430 kPa, Gas	1.03
333.4 K, 460 kPa, Gas	1.031
333.4 K, 540 kPa, Gas	1.036
333.4 K, 710 kPa, Gas	1.047
333.4 K, 850 kPa, Gas	1.057
333.4 K, 1050 kPa, Gas	1.071
333.4 K, 1380 kPa, Gas	1.122
333.4 K, 2200 kPa, Liquid	4.46
333.4 K, 4300 kPa, Liquid	4.52
333.4 K, 6400 kPa, Liquid	4.58
333.4 K, 8300 kPa, Liquid	4.62
333.4 K, 10200 kPa, Liquid	4.67
333.4 K, 12200 kPa, Liquid	4.71
333.4 K, 14000 kPa, Liquid	4.74
333.4 K, 15800 kPa, Liquid	4.78
333.4 K, 17200 kPa, Liquid	4.81
333.4 K, 22000 kPa, Liquid	4.89
333.4 K, 23800 kPa, Liquid	4.92
333.4 K, 25800 kPa, Liquid	4.95
333.4 K, 27600 kPa, Liquid	4.97
333.4 K, 29400 kPa, Liquid	4.99
343.2 K, 60 kPa, Gas	1.01
343.2 K, 120 kPa, Gas	1.013
343.2 K, 220 kPa, Gas	1.018
343.2 K, 390 kPa, Gas	1.027
343.2 K, 430 kPa, Gas	1.029
343.2 K, 490 kPa, Gas	1.032
343.2 K, 550 kPa, Gas	1.035
343.2 K, 610 kPa, Gas	1.039
343.2 K, 740 kPa, Gas	1.044
343.2 K, 930 kPa, Gas	1.059
343.2 K, 1090 kPa, Gas	1.069
343.2 K, 1240 kPa, Gas	1.08
343.2 K, 1550 kPa, Gas	1.106
343.2 K, 1730 kPa, Gas	1.166
343.2 K, 2600 kPa, Liquid	4.21
343.2 K, 4000 kPa, Liquid	4.25
343.2 K, 6000 kPa, Liquid	4.32
343.2 K, 8200 kPa, Liquid	4.38
343.2 K, 10200 kPa, Liquid	4.43
343.2 K, 12200 kPa, Liquid	4.48
343.2 K, 14400 kPa, Liquid	4.52
343.2 K, 16300 kPa, Liquid	4.56
343.2 K, 18000 kPa, Liquid	4.59
343.2 K, 20200 kPa, Liquid	4.64
343.2 K, 21900 kPa, Liquid	4.67
343.2 K, 23400 kPa, Liquid	4.69
343.2 K, 27700 kPa, Liquid	4.76
343.2 K, 30400 kPa, Liquid	4.8
343.2 K, 33200 kPa, Liquid	4.84
353.1 K, 40 kPa, Gas	1.01
353.1 K, 100 kPa, Gas	1.012
353.1 K, 220 kPa, Gas	1.017
353.1 K, 480 kPa, Gas	1.03
353.1 K, 530 kPa, Gas	1.033
353.1 K, 580 kPa, Gas	1.036
353.1 K, 680 kPa, Gas	1.041
353.1 K, 780 kPa, Gas	1.047
353.1 K, 870 kPa, Gas	1.052
353.1 K, 970 kPa, Gas	1.058
353.1 K, 1070 kPa, Gas	1.064
353.1 K, 1180 kPa, Gas	1.071
353.1 K, 1270 kPa, Gas	1.078
353.1 K, 1340 kPa, Gas	1.082
353.1 K, 1440 kPa, Gas	1.09
353.1 K, 1540 kPa, Gas	1.098
353.1 K, 1700 kPa, Gas	1.109
353.1 K, 1890 kPa, Gas	1.128
353.1 K, 2150 kPa, Gas	1.178
353.1 K, 2200 kPa, Liquid	3.92
353.1 K, 4000 kPa, Liquid	3.98
353.1 K, 6400 kPa, Liquid	4.07
353.1 K, 8200 kPa, Liquid	4.13
353.1 K, 10200 kPa, Liquid	4.19
353.1 K, 12200 kPa, Liquid	4.24
353.1 K, 14200 kPa, Liquid	4.29
353.1 K, 16100 kPa, Liquid	4.33
353.1 K, 18200 kPa, Liquid	4.38
353.1 K, 20000 kPa, Liquid	4.42
353.1 K, 21800 kPa, Liquid	4.45
353.1 K, 24000 kPa, Liquid	4.49
353.1 K, 25800 kPa, Liquid	4.52
353.1 K, 27700 kPa, Liquid	4.55
353.1 K, 29800 kPa, Liquid	4.58
363.4 K, 850 kPa, Gas	1.048
363.4 K, 1050 kPa, Gas	1.059
363.4 K, 1200 kPa, Gas	1.068
363.4 K, 1410 kPa, Gas	1.081
363.4 K, 1580 kPa, Gas	1.092
363.4 K, 1750 kPa, Gas	1.104
363.4 K, 1890 kPa, Gas	1.116
363.4 K, 2070 kPa, Gas	1.131
363.4 K, 2280 kPa, Gas	1.15
363.4 K, 2800 kPa, Liquid	3.63
363.4 K, 4200 kPa, Liquid	3.71
363.4 K, 6200 kPa, Liquid	3.8
363.4 K, 8000 kPa, Liquid	3.88
363.4 K, 10200 kPa, Liquid	3.95
363.4 K, 12200 kPa, Liquid	4.01
363.4 K, 14200 kPa, Liquid	4.06
363.4 K, 16000 kPa, Liquid	4.11
363.4 K, 18000 kPa, Liquid	4.16
363.4 K, 20000 kPa, Liquid	4.2
363.4 K, 22000 kPa, Liquid	4.24
363.4 K, 24000 kPa, Liquid	4.28
363.4 K, 26000 kPa, Liquid	4.31
363.4 K, 28000 kPa, Liquid	4.35
363.4 K, 30500 kPa, Liquid	4.4
372.9 K, 3400 kPa, Liquid	3.38
372.9 K, 4200 kPa, Liquid	3.44
372.9 K, 6100 kPa, Liquid	3.57
372.9 K, 8300 kPa, Liquid	3.66
372.9 K, 10200 kPa, Liquid	3.73
372.9 K, 12200 kPa, Liquid	3.81
372.9 K, 14400 kPa, Liquid	3.88
372.9 K, 16200 kPa, Liquid	3.91
372.9 K, 18300 kPa, Liquid	3.96
372.9 K, 20000 kPa, Liquid	4
372.9 K, 22300 kPa, Liquid	4.05
372.9 K, 24100 kPa, Liquid	4.09
372.9 K, 26200 kPa, Liquid	4.14
372.9 K, 27800 kPa, Liquid	4.16
372.9 K, 29200 kPa, Liquid	4.18
382.9 K, 4000 kPa, Liquid	3.08
382.9 K, 6200 kPa, Liquid	3.31
382.9 K, 8100 kPa, Liquid	3.43
382.9 K, 10000 kPa, Liquid	3.53
382.9 K, 12300 kPa, Liquid	3.62
382.9 K, 14200 kPa, Liquid	3.68
382.9 K, 16100 kPa, Liquid	3.74
382.9 K, 18000 kPa, Liquid	3.79
382.9 K, 20000 kPa, Liquid	3.84
382.9 K, 22000 kPa, Liquid	3.89
382.9 K, 24000 kPa, Liquid	3.93
382.9 K, 26000 kPa, Liquid	3.97
382.9 K, 27900 kPa, Liquid	4.01
382.9 K, 30100 kPa, Liquid	4.05
393 K, 6200 kPa, Liquid	3.01
393 K, 8400 kPa, Liquid	3.21
393 K, 10000 kPa, Liquid	3.3
393 K, 12300 kPa, Liquid	3.4
393 K, 14200 kPa, Liquid	3.47
393 K, 16200 kPa, Liquid	3.54
393 K, 18200 kPa, Liquid	3.6
393 K, 20000 kPa, Liquid	3.65
393 K, 22000 kPa, Liquid	3.7
393 K, 24000 kPa, Liquid	3.75
393 K, 26000 kPa, Liquid	3.79
393 K, 27800 kPa, Liquid	3.83
393 K, 29500 kPa, Liquid	3.86
402.9 K, 6900 kPa, Fluid (supercritical or subcritical phases)	2.75
402.9 K, 8600 kPa, Fluid (supercritical or subcritical phases)	2.96
402.9 K, 10200 kPa, Fluid (supercritical or subcritical phases)	3.08
402.9 K, 12000 kPa, Fluid (supercritical or subcritical phases)	3.19
402.9 K, 14200 kPa, Fluid (supercritical or subcritical phases)	3.28
402.9 K, 16100 kPa, Fluid (supercritical or subcritical phases)	3.35
402.9 K, 18000 kPa, Fluid (supercritical or subcritical phases)	3.4
402.9 K, 20000 kPa, Fluid (supercritical or subcritical phases)	3.47
402.9 K, 21700 kPa, Fluid (supercritical or subcritical phases)	3.51
402.9 K, 23600 kPa, Fluid (supercritical or subcritical phases)	3.55
402.9 K, 25800 kPa, Fluid (supercritical or subcritical phases)	3.61
402.9 K, 27100 kPa, Fluid (supercritical or subcritical phases)	3.64
402.9 K, 29500 kPa, Fluid (supercritical or subcritical phases)	3.68
